{"source": "patent US9808954B2", "about": "“Composition of a timber formulation comprising Cu salts and organic cyclic ingredients for the preservation of timber for decks” (Rutgers Organics GmbH, priority 2014, dated 2017)", "key": {"[1]": {"system": "coniophora puteana", "assay": "EN113 test after EN84 washing, pine timber, coniophora puteana", "assay_type": "cell-based", "experimental": "(§1) Timber pieces were positioned in a treating vessel. Over a period of 30 minutes a pressure of 0.1 bar was applied. The treating solution containing a Product was sucked into the vessel. Then the pressure in the vessel was increased to 10 bar at 25° C. for 90 minutes. Afterwards the pressure was set to ambient pressure and the remainder of the treating solution was removed. The impregnated timber pieces were dried at ambient temperature.\n(§2) In both tables 13 and 14 the standard applied is EN113. Prior to EN113, the timber was washed according to EN84. The type of timber used was pine.\n(§3) Tables 13 and 14 show the average retention of the active ingredient (AI) in Product C when it is exposed to both “poria placenta” (table 13) and “coniophora puteana” (table 14). Comparisons are also made with retention values of DPAB and the azol (triadimefon) in the timber. Average AI retention values are required in order to pass the EN113 Standard.\n(§4) In both tables 15 and 16 the standard applied is EN113. Prior to EN113, the timber was washed according to EN84. The type of timber used was pine.\n(§5) As for product C, tables 15 and 16 show the average retention of the active ingredient (AI) in Product D when it is exposed to both “poria placenta” (table 15) and “coniophora puteana” (table 16). Comparisons are also made with retention values of DPAB and the azol (cyproconazol) in the timber. […]"}, "[2]": {"system": "poria placenta", "assay": "EN113 test after EN84 washing, pine timber, poria placenta", "assay_type": "cell-based", "experimental": "as §1, §2, §3, §4, §5"}}, "data": [{"substance": "di-decyl-poly-oxethyl-ammoninum borate [DPAB TGAI]", "values": [{"measurement": "Average DPAB retention in timber", "setting": "[1]; coniophora puteana (Table 14)", "value": 7.40, "unit": "kg/m^3"}, {"measurement": "Average DPAB retention in timber", "setting": "[1]; coniophora puteana (Table 16)", "value": 7.40, "unit": "kg/m^3"}, {"measurement": "Average DPAB retention in timber", "setting": "[2]; poria placenta (Table 13)", "value": 4.50, "unit": "kg/m^3"}, {"measurement": "Average DPAB retention in timber", "setting": "[2]; poria placenta (Table 15)", "value": 4.50, "unit": "kg/m^3"}]}]}
